Measured values from patent US9758485B2, “Compounds for controlling arthropods” (priority 2013, dated 2017).
Like-named read-outs stand apart in the source and are kept apart here.

What was measured:
[1] = tested on: Phaedon cochleariae; test: Phaedon cochleariae - spray test; format: in vivo; conditions: application rate 100 g/ha, larvae on Chinese cabbage leaf discs, after 7 days; for pest or weed control at 100 g/ha: Phaedon cochleariae, foliar, 168 h, read-out: efficacy
Experimental: Phaedon cochleariae—Spray Test
(§1) Solvent: 78.0 parts by weight of acetone and 1.5 parts by weight of dimethylformamide
(§2) Emulsifier: alkylaryl polyglycol ether
(§3) To produce an appropriate active ingredient formulation, 1 part by weight of active ingredient is dissolved using the specified parts by weight of solvent and made up with water containing an emulsifier concentration of 1000 ppm until the desired concentration is attained. To produce further test concentrations, the preparation is diluted with emulsifier-containing water.
Discs of Chinese cabbage leaves (Brassica pekinensis) are sprayed with an active ingredient formulation of the desired concentration and, after drying, populated with larvae of the mustard beetle (Phaedon cochleariae).
After 7 days, efficacy in % is determined. 100% means that all the beetle larvae have been killed; 0% means that no beetle larvae have been killed.

[2] = logP determination by HPLC on a reversed-phase column (C18), EEC Directive 79/831 Annex V.A8; format: physicochemical; conditions: for log P: HPLC-MS, reversed-phase column (C18)
[3] = tested on: Spodoptera frugiperda; test: Spodoptera frugiperda - spray test; format: in vivo; conditions: foliar, 168 h, application rate 100 g/ha, caterpillars on maize leaf discs, after 7 days, read-out: efficacy
Experimental: Spodoptera frugiperda—Spray Test
as §1, §2, §3
Leaf discs of maize (Zea mays) are sprayed with an active ingredient formulation of the desired concentration and, after drying, populated with caterpillars of the armyworm (Spodoptera frugiperda).
After 7 days, efficacy in % is determined. 100% means that all the caterpillars have been killed; 0% means that no caterpillars have been killed.

[4] = tested on: Ctenocephalides felis; test: Ctenocephalides felis - oral test; format: in vivo; conditions: application rate 100 ppm in citrated cattle blood, adult fleas, kill after 2 days
Summary of the method: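 Steps: active ingredient dissolved in dimethyl sulphoxide; blood dilution prepared; fleas (about 20, unfed adults) held in gauze-closed chamber beneath a cylinder of treated blood; feeding via parafilm; kill percentage determined after 2 days.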

[5] = tested on: Lucilia cuprina; test: Lucilia cuprina test; format: in vivo; conditions: application rate 100 ppm, L1 larvae in minced horsemeat, kill after 2 days
Summary of the method: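 Mortality (%) of first-instar blowfly larvae, about 20 per vessel, recorded 2 days after exposure to compound-treated minced horsemeat. Compound dissolved in dimethyl sulphoxide, then water-diluted to the desired concentration.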

[6] = tested on: Boophilus microplus Parkhurst strain, SP-resistant; test: Boophilus microplus - dip test; format: in vivo; conditions: application rate 100 ppm; dip of engorged adult female ticks; laying of fertile eggs, after 7 days
Summary of the method: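 Efficacy reflects suppression of fertile egg laying: 0% means all eggs fertile, 100% none, read at 7 days, doubtful eggs kept ~42 days for larval hatch. Treatment was a complete dip of 8–10 engorged adult female ticks (SP-resistant Parkhurst strain) in a water dilution of a DMSO stock.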

[7] = tested on: Rhipicephalus sanguineus; test: Rhipicephalus sanguineus - in vitro contact tests with adult brown dog ticks; format: in vivo
Summary of the method: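 Test compound was dissolved in acetone p.a. (9 mg in 1 ml, then diluted), and 250 μl were spread evenly over the inner surface of 25 ml test tubes on an orbital shaker at 30 rpm for 2 h. Once the solvent evaporated, 5-10 adult Rhipicephalus sanguineus ticks were sealed in, kept dark at room temperature, and after 48 h placed on a 45-50° C. hotplate to score dead or moribund ticks.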

[8] = tested on: Amblyomma hebraeum; test: Amblyomma hebraeum test (tick nymphs, immersion); format: in vivo; conditions: application rate 100 ppm; tick nymphs immersed for one minute; kill after 42 days
Experimental: Solvent: dimethyl sulphoxide
To produce an appropriate active ingredient formulation, 10 mg of active ingredient are mixed with 0.5 ml of dimethyl sulphoxide, and the concentrate is diluted with water to the desired concentration.
Tick nymphs (Amblyomma hebraeum) are placed into perforated plastic beakers and immersed in the desired concentration for one minute. The ticks are transferred on filter paper into a Petri dish and stored in a climate-controlled cabinet.
After 42 days, the kill in % is determined. 100% means that all of the ticks have been killed; 0% means that none of the ticks have been killed.

[9] = tested on: Musca domestica; test: Musca domestica test; format: in vivo; conditions: application rate 100 ppm; adult houseflies; kill after 2 days
Summary of the method: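 First, 10 mg compound was taken up in 0.5 ml DMSO and then brought with water to the required concentration. This was applied with sugar solution to a sponge in vessels holding 10 adult flies; kill was assessed after 2 days.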

[10] = tested on: Boophilus microplus; test: Boophilus microplus - injection test; format: in vivo; conditions: application rate 20 μg/animal; injected into engorged adult female ticks; laying of fertile eggs, after 7 days
Summary of the method: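 Engorged adult female ticks, five per dose, were injected in the abdomen with 1 μl of active ingredient diluted in dimethyl sulphoxide. Animals were kept in dishes under climate control, and egg fertility was assessed after 7 days.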

[11] = tested on: Ctenocephalides felis; test: Ctenocephalides felis - in vitro contact tests with adult cat fleas; format: in vivo; conditions: application rate 5 μg/cm^2 (=500 g/ha), after 48 h (dead or moribund)
Summary of the method: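 Efficacy, as share of dead or moribund adult Ctenocephalides felis, read 48 h after placing 5-10 fleas in tubes coated by acetone solution (5 μg/cm^2 at 900 ppm). Incubation horizontal at room temperature, ambient humidity; immobile or uncoordinated fleas scored.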

[12] = reversed-phase HPLC column (C18), HPLC, reversed-phase C18, acetonitrile/water with formic acid, 55° C., read-out: logP
[13] = reversed-phase HPLC column (C18), HPLC-MS method a); read-out: logP^a)
[14] = application rate 1 μg/cm^2, after 48 h (dead or moribund)
[15] = application rate 5 μg/cm^2, after 48 h (dead or moribund)

chromatographic logP [2, 12]	chromatographic logP [2, 13]	chromatographic logP ([2]; reversed-phase HPLC column (C18), HPLC-MS method a), Table I-T3; read-out: logP^a))	logP ([2]; HPLC, reversed-phase C18, acetonitrile/water with formic acid, 55° C.)	Structure (SMILES)	pest or weed control at 100 g/ha [1] [%]	pest or weed control at 100 g/ha [3] [%]	pest or weed control at 100 ppm ([4]; Ctenocephalides felis, po, 48 h, read-out: efficacy) [%]	pest or weed control at 100 ppm ([5]; Lucilia cuprina, 48 h, read-out: efficacy) [%]	efficacy [6] [%]	efficacy [7, 14] [%]	efficacy [8] [%]	efficacy [9] [%]	efficacy [4] [%]	log P [2]	efficacy [10] [%]	efficacy [5] [%]	efficacy [11] [%]	efficacy [7, 15] [%]	efficacy [1] [%]
4.9	4.9			Cc1cc(C(F)(C(F)(F)F)C(F)(F)F)cc(C)c1-c1ccn(-c2ccc(Cl)c(C(=O)NC3CC3)c2)n1 [I-T2-1, 2-chloro-N-cyclopropyl-5-[3-[2,6-dimethyl-4-[1,2,2,2-tetrafluoro-1-(trifluoromethyl)ethyl]phenyl]pyrazol-1-yl]benzamide]	100														
3.2	3.2	3.2		O=C(NC1CC1)c1cc(-c2cnn(-c3c(F)cc(C(F)(F)F)cc3F)c2)ccc1Cl [I-T3-48, 2-chloro-N-cyclopropyl-5-[1-[2,6-difluoro-4-(trifluoromethyl)phenyl]pyrazol-4-yl]benzamide]	100	100	100	100											
				Cc1cc(C(F)(C(F)(F)F)C(F)(F)F)cc(C(F)(F)F)c1-n1cc(-c2cnc(Cl)c(C(=O)NC3(C#N)CC3)c2)cn1 [I-T3-108]					100	100	100	100	100	4.0	100	100	100		
				CCc1cc(C(F)(C(F)(F)F)C(F)(F)F)cc(C)c1-n1cc(-c2cnc(Cl)c(C(=O)NC3CC3)c2)cn1 [I-T3-109]					100		100	100	100	4.2	100	100	100	100	
				CCc1cc(C(F)(C(F)(F)F)C(F)(F)F)cc(C)c1-n1cc(-c2cnc(Cl)c(C(=O)NC3(C#N)CC3)c2)cn1 [I-T3-110]					100		100	100	100	4.1	100	100	100	100	
				O=C(NC1CC1)c1cc(-c2cnn(-c3c(Cl)cc(C(F)(C(F)(F)F)C(F)(F)F)cc3C(F)(F)F)c2)cnc1Cl [I-T3-112]					100		100	100	100	4.0	100	100	100	100	
				N#CC1(NC(=O)c2cc(-c3cnn(-c4c(Cl)cc(C(F)(C(F)(F)F)C(F)(F)F)cc4C(F)(F)F)c3)cnc2Cl)CC1 [I-T3-114]					100	100	100	100	100	4.0	100	100	100		
				Cc1cc(C(F)(C(F)(F)F)C(F)(F)F)cc(C(F)(F)F)c1-n1cc(-c2cnc(C)c(C(=O)NC3CC3)c2)cn1 [I-T3-117]					100		100	100	100	3.5	100	100	100	100	
				Cc1cc(C(F)(C(F)(F)F)C(F)(F)F)cc(C(F)(F)F)c1-n1cc(-c2cnc(C)c(C(=O)NC3(C#N)CC3)c2)cn1 [I-T3-119]					100		100	100	100	3.6	100	100	100	100	
				Cc1cc(C(F)(C(F)(F)F)C(F)(F)F)cc(C(F)(F)F)c1-n1cc(-c2cnc(C)c(C(=O)N(C)C3(C#N)CC3)c2)cn1 [I-T3-123]					100	80	80	100	100	3.9	100	100	100		
				Cc1ncc(-c2cnn(-c3c(Cl)cc(C(F)(C(F)(F)F)C(F)(F)F)cc3C(F)(F)F)c2)cc1C(=O)NC1(C#N)CC1 [I-T3-125]					100		100	100	100	3.8	100	100	100		100
				O=C(NC1CC1)c1cc(-c2cnn(-c3c(Br)cc(C(F)(C(F)(F)F)C(F)(F)F)cc3C(F)(F)F)c2)ccc1Cl [I-T3-148]					100		100	100	100	4.5	100	100	100	100	
				N#CC1(NC(=O)c2cc(-c3cnn(-c4c(Br)cc(C(F)(C(F)(F)F)C(F)(F)F)cc4C(F)(F)F)c3)ccc2Cl)CC1 [I-T3-155]					100		100	100	100	4.4	100	100	100	100	
				O=C(NC1CC1)c1cc(-c2cnn(-c3c(Cl)cc(C(F)(C(F)(F)F)C(F)(F)F)cc3OC(F)(F)F)c2)ccc1Cl [I-T3-162]					100		100	100	100	4.6	100	100	100	100	
				N#CC1(NC(=O)c2cc(-c3cnn(-c4c(Cl)cc(C(F)(C(F)(F)F)C(F)(F)F)cc4OC(F)(F)F)c3)ccc2Cl)CC1 [I-T3-163]					100		100	100	100	4.5	100	100	100	100	
			4.6	Cc1cc(C(F)(C(F)(F)F)C(F)(F)F)cc(C)c1-c1cc(-c2ccc(Cl)c(C(=O)NC3(C#N)CC3)c2)on1 [I-T22-2]					100		100	100	100		100	100	100	100	
